Values quoted from earlier work, collected in patent US20220193127A1, “IMMUNOTHERAPY FOR OPIOID ADDICTION” (Therapeutic Solutions International, Inc., priority 2020, published 2022).

Experiments:
[1] = tested on: dentate gyrus of the hippocampus
microglial cells = conditions: for development of neuropathic pain: in vivo; for microglial activation / proinflammatory cytokines: neuropathic pain
[2] = rats fed for 6 weeks with liquid diet containing moderate doses of ethanol, vs paired controls

Structure (SMILES) | neurogenesis within the olfactory bulb ([1]; rat model of alcoholism) | decrease in the number of new neurons in the dentate gyrus [1, 2] [%] | increase in cell death in the dentate gyrus [1, 2] | development of neuropathic pain (microglial cells) | microglial activation (microglial cells) | proinflammatory cytokines (microglial cells)
CCO [ethanol] | not affected | 66.3 | 227-279% |  |  | 
O=C(O)CC(O)(C(=O)O)C(F)C(=O)O (stereo not drawn) [fluorocitrate] |  |  |  | suppressing | decrease | inhibit
CC(=O)CCCCn1c(=O)c2c(ncn2C)n(C)c1=O [pentoxifylline] |  |  |  | suppressing | decrease | inhibit
CCCn1cnc2c1c(=O)n(CCCCC(C)=O)c(=O)n2C [propentofylline] |  |  |  | suppressing | decrease | inhibit
